Results on 1 molecule are retold here after patent US11903907B2, “Soluble honokiol derivatives” (TAIPEI MEDICAL UNIVERSITY, priority 2017, dated 2024).

Data set [1] in a line: Plasma concentration of honokiol and pharmacokinetics after intravenous injection in rats. The conditions noted are these: rat plasma, i.v.
Method: Mean plasma concentrations of honokiol vs. time profile in five rats were measured after intravenous injection of HP-TMU or honokiol.
The plasma concentrations of honokiol at different points are expressed as mean±SD, and the mean concentration-time curve is shown in FIG. 4A.
The subject of data set [2] is middle cerebral artery occlusion (MCAO) embolic stroke. Briefly: MCAO embolic stroke in mice: infarct volume and brain edema from TTC-stained brain sections. It is filed as in vivo. The method, then:
(§1) Coronal sections of 2,3,5-triphenyltetrazolium chloride (TTC)-stained brains were taken after middle cerebral artery occlusion (MCAO) in the vehicle group treated with an isovolumetric solvent (normal saline, intravenous [i.v.]), and groups treated with HP-TMU (0.25, 0.5 and 1 mg/kg, i.v.) or honokiol (0.129, 0.258 and 0.516 mg/kg, i.v.; the doses of honokiol were adjusted by the ratio of the molecular weight of honokiol to HP-TMU (266.33/514.22)) after 30 min-embolic occlusion. The densitometric analyses for the measurement of infarct volume and brain edema were performed after treatment with HP-TMU or honokiol against embolic stroke in mice. Bleeding time was measured 10 min after the i.v. administration of normal saline (isovolumetric control) or HP-TMU (0.5 and 1 mg/kg, i.v.) for 30 min.
(§2) In addition, MCAO-induced cerebral edema in the ischemic hemisphere was reduced by the treatment of 1 mg/kg HP-TMU (FIG. 1C). […] On the other hand, increased risk of hemorrhage is a major side effect of anti-stroke treatments. To evaluate HP-TMU in this aspect, we used the mouse tail transection model as an index of hemostasis.

For data set [3], the system named is mouse tail transection model (hemostasis). Nature of the data set: Bleeding time, mouse tail transection model. It is filed as in vivo, mice. The settings on record: 0.5 and 1 mg/kg i.v.; measured 10 min after administration. The method, then: as §1, §2
The subject of data set [4] is middle cerebral artery occlusion (MCAO). Nature of the data set: Long-term recovery after MCAO by neurological severity scoring, comparison with edaravone. It counts as in vivo, mice. The conditions noted are these: 1 mg/kg i.v.; at 1, 2, and 7 days after surgery. The method, then: Mice were subjected to middle cerebral artery occlusion (MCAO) surgery for 30 min, and then treated with the isovolumetric vehicle control (normal saline, intravenous [i.v.]) or HP-TMU (1 mg/kg, i.v.) or edaravone (3 mg/kg, i.v.). The therapeutic effects of HP-TMU on long-term recovery were evaluated by neurological severity scoring before or 1, 2, 7, 14, and 28 days after surgery.

Data set [5] shares this test system. Briefly: Neurobehavioral functions after MCAO: neurological severity scoring and rotarod test. It counts as in vivo, mice. The conditions noted are these: 0.5 and 1 mg/kg i.v., 24 and 48 h after MCAO, P<0.05. As to the method: Mice were subjected to middle cerebral artery occlusion (MCAO) surgery for 30 min, and then treated with the isovolumetric vehicle control (normal saline, intravenous [i.v.]) or HP-TMU (0.25, 0.5 and 1 mg/kg, i.v.) or honokiol (0.129, 0.258 and 0.516 mg/kg, i.v.). Assays of neurobehavioral functions include neurological severity scoring and the rotarod test. Evaluations were performed before and 24 and 48 h after surgery.
(In general: The rotarod test checks motor coordination on a turning rod.)

`C=CCc1ccc(OP(=O)(O)O)c(-c2ccc(OP(=O)([O-])[O-])c(CC=C)c2)c1.[Na+].[Na+]` [HP-TMU, sodium 3′,5-diallyl-[1,1′-biphenyl]-2,4′-diyl bis(phosphate)]: the “half-life compared to honokiol” value in data set [1] is reported as “prolonged half-life compared to honokiol”. Moreover, in data set [2] (1 mg/kg i.v.), the “MCAO-induced cerebral edema in the ischemic hemisphere” value was “reduced”. The infarct volume result in data set [2] (0.5 and 1 mg/kg i.v. after 30 min-embolic occlusion, compared with solvent control group, P<0.05) is given as “significantly reduced the infarct volume”. Further, the “neuroprotective effects compared with honokiol” value in data set [2] (HP-TMU 0.25, 0.5, 1 mg/kg i.v. vs honokiol 0.129, 0.258, 0.516 mg/kg i.v.) was “more potent neuroprotective effects than honokiol”. For the same molecule, in data set [3], the bleeding time result was “did not alter the bleeding time substantially”. Also, the “long-term recovery of neurological deficit” value in data set [4] is listed as “significantly improved”. The “neurobehavioral (neurological) deficit scores, 18-point scale” value in data set [5] was “significantly ameliorated these increased scores”. Besides, the “decrease of rotarod duration” value in data set [5] (vs vehicle control) is listed as “significant reversed”.
